According to patent EP2548876A1, “New CRTh2 antagonists” (Almirall, S.A., priority 2011, dated 2013):

Molecular target: T1, CRTh2 receptor (Homo sapiens, UniProt Q9Y5Y4)
T1 construct: expressed in transfected cells; host or cells: CHO.K1 cells (membranes)
T1 sequence (Q9Y5Y4 1-395): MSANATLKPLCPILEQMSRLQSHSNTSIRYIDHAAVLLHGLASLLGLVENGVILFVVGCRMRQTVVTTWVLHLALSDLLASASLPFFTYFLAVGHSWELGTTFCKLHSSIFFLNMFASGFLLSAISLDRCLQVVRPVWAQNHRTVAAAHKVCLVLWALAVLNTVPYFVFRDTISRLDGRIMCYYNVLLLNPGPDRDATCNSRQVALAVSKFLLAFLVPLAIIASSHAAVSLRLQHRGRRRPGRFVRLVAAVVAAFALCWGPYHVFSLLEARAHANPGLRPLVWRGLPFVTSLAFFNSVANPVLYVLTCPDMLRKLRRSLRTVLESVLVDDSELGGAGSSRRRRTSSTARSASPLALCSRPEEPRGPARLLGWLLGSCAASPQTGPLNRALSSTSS
Assay: CRTh2 GTPγS antagonism binding assay
Type: biochemical
Settings: membranes from CHO.K1 cells stably overexpressing the CRTh2 receptor; PGD2 at 50 nM (EC80); 0.1 nM [35S]-GTPγS; 1 h pre-incubation with compound, then 2 h at room temperature; read-out: GTPγ Binding
Method: CRTh2 GTPγS antagonism binding assay
The assay is performed using membranes obtained from CHO.K1 cells stably overexpressing the CRTh2 receptor and [^35S]-GTPγS as radioligand. Assay is performed pre-incubating 4-8 µg of membranes per well with the compound to be tested for 1 h, followed by incubation with PGD2 at 50 nM (EC80), 0.1 nM [^35S]-GTPγS in incubation buffer (20 mM HEPES, 10 mM MgCl2, 100 mM NaCl, 10 µM GDP, 10 µg/ml Saponine and 0.2% BSA) for 2 h at room temperature. The reaction is terminated by filtering in GF/C plates pre-treated with 20 mM HEPES, 10 mM MgCl2, 100 mM NaCl and washing 6 times with wash buffer (20 mM NaH2PO4, 20 mM Na2HPO4). After washing, plates are dried and scintillation buffer Optiphase added. The radioactivity retained in the filter is counted using a Microbeta liquid scintillation counter. Compound IC50 are determined using Excel XL-fit for calculations.

Compound | IC50
CCN(Cc1cc(C(F)(F)F)ccc1-c1cn(C(C)C(=O)O)c2ccc(C)nc12)C(=O)C1CC1 (stereo not drawn) [Example 6, 2-{3-[2-{[(Cyclopropylcarbonyl)(ethyl)amino]methyl}-4-(trifluoromethyl)phenyl]-5-methyl-1H-pyrrolo[3,2-b]pyridin-1-yl}propanoic acid] | 18 nM
CCN(Cc1cc(F)ccc1-c1cn(CC(=O)O)c2cccnc12)C(=O)C1CC1 [Example 2, [3-(2-{[(Cyclopropylcarbonyl)(ethyl)amino]methyl}-4-fluorophenyl)-1H-pyrrolo[3,2-b]pyridin-1-yl]acetic acid] | 10 nM
CCN(Cc1ccccc1-n1cc(CC(=O)O)c2ccc(C)nc21)C(=O)C1CC1 [Example 17, [1-(2-{[(Cyclopropylcarbonyl)(ethyl)amino]methyl}phenyl)-6-methyl-1H-pyrrolo[2,3-b]pyridin-3-yl]acetic acid] | 5 nM
CCN(Cc1cc(C(F)(F)F)ccc1-c1cn(CC(=O)O)c2cccnc12)C(=O)C1CC1 [Example 1, {3-[2-{[(Cyclopropylcarbonyl)(ethyl)amino]methyl}-4-(trifluoromethyl)phenyl]-1H-pyrrolo[3,2-b]pyridin-1-yl}acetic acid] | 15 nM
CCN(Cc1cc(F)ccc1-n1cc(CC(=O)O)c2ccc(C)nc21)C(=O)C1CC1 [Example 16, [1-(2-{[(Cyclopropylcarbonyl)(ethyl)amino]methyl}-4-fluorophenyl)-6-methyl-1H-pyrrolo[2,3-b]pyridin-3-yl]acetic acid] | 5 nM
CCN(Cc1cc(F)ccc1-n1cc(CC(=O)O)c2cccnc21)C(=O)C1CC1 [Example 13, [1-(2-{[(Cyclopropylcarbonyl)(ethyl)amino]methyl}-4-fluorophenyl)-1H-pyrrolo[2,3-b]pyridin-3-yl]acetic acid] | 17 nM
CCN(Cc1cc(C(F)(F)F)ccc1-c1cc(CC(=O)O)n2ccc(C(F)(F)F)nc12)C(=O)C1CC1 [Example 22, [8-[2-{[(Cyclopropylcarbonyl)(ethyl)amino]methyl}-4-(trifluoromethyl)phenyl]-2-(trifluoromethyl)pyrrolo[1,2-a]pyrimidin-6-yl]acetic acid] | 6 nM
Cc1ccc2c(n1)c(-c1ccc(C(F)(F)F)cc1CN(Cc1ccccc1)C(=O)C1CC1)cn2CC(=O)O [Example 9, {3-[2-{[Benzyl(cyclopropylcarbonyl)amino]methyl}-4-(trifluoromethyl)phenyl]-5-methyl-1H-pyrrolo[3,2-b]pyridin-1-yl}acetic acid] | 14 nM
CCN(Cc1cc(C(F)(F)F)ccc1-c1cc(CC(=O)O)n2ccc(C)nc12)C(=O)C1CC1 [Example 23, {8-[2-{[(Cyclopropylcarbonyl)(ethyl)amino]methyl}-4-(trifluoromethyl)phenyl]-2-methylpyrrolo[1,2-a]pyrimidin-6-yl}acetic acid] | 7 nM
CCN(Cc1cc(C(F)(F)F)ccc1-c1cc(CC(=O)O)n2cccnc12)C(=O)C1CC1 [Example 20, {8-[2-{[(Cyclopropylcarbonyl)(ethyl)amino]methyl}-4-(trifluoromethyl)phenyl]pyrrolo[1,2-a]pyrimidin-6-yl}acetic acid] | 13 nM
CCN(Cc1cc(C(F)(F)F)ccc1-c1cc(CC(=O)O)c2ccncn12)C(=O)C1CC1 [Example 26, {7-[2-{[(Cyclopropylcarbonyl)(ethyl)amino]methyl}-4-(trifluoromethyl)phenyl]pyrrolo[1,2-c]pyrimidin-5-yl}acetic acid] | 32 nM
CCN(Cc1cc(C(F)(F)F)ccc1-n1cc(CC(=O)O)c2cccnc21)C(=O)C1CC1 [Example 12, {1-[2-{[(Cyclopropylcarbonyl)(ethyl)amino]methyl}-4-(trifluoromethyl)phenyl]-1H-pyrrolo[2,3-b]pyridin-3-yl}acetic acid] | 9 nM
CCN(Cc1cc(F)ccc1-c1cc(CC(=O)O)n2cccnc12)C(=O)C1CC1 [Example 21, [8-(2-{[(Cyclopropylcarbonyl)(ethyl)amino]methyl}-4-fluorophenyl)pyrrolo[1,2-a]pyrimidin-6-yl]acetic acid] | 20 nM
CCN(Cc1cc(F)ccc1-c1cn(CC(=O)O)c2ccc(C(F)(F)F)nc12)C(=O)C1CC1 [Example 7, [3-(2-{[(Cyclopropylcarbonyl)(ethyl)amino]methyl}-4-fluorophenyl)-5-(trifluoromethyl)-1H-pyrrolo[3,2-b]pyridin-1-yl]acetic acid] | 11 nM
CCN(Cc1cc(C(F)(F)F)ccc1-c1cn(CC(=O)O)c2ccc(C)nc12)C(=O)C1CC1 [Example 3, {3-[2-{[(Cyclopropylcarbonyl)(ethyl)amino]methyl}-4-(trifluoromethyl)phenyl]-5-methyl-1H-pyrrolo[3,2-b]pyridin-1-yl}acetic acid] | 16 nM
